Blank lines part the entries; values can stand above or below the compound they belong to.
Experiments:
Test in all cases: Caliper, Mobility shift assay off-chip
NTRK2 (human) = NTRK2 (human) (UniProt Q16620)
NTRK1 (human) = NTRK1 (human) (UniProt P04629)
YES1 (human) = YES1 (human) (UniProt P07947)
CAMK2A (human) = CAMK2A (human) (UniProt Q9UQM7)
DAPK1 (human) = DAPK1 (human) (UniProt P53355)
ROCK1 (human) = ROCK1 (human) (UniProt Q13464)
IKBKE (human) = IKBKE (human) (UniProt Q14164)
MKNK1 (human) = MKNK1 (human) (UniProt Q9BUB5)
TEC (human) = TEC (human) (UniProt P42680)
PRKX (human) = PRKX (human) (UniProt P51817)
ERBB2 (human) = ERBB2 (human) (UniProt P04626)
CSNK2A1 (human) = CSNK2A1 (human) (UniProt P68400)
CLK2 (human) = CLK2 (human) (UniProt P49760)
NEK1 (human) = NEK1 (human) (UniProt Q96PY6)
TYRO3 (human) = TYRO3 (human) (UniProt Q06418)
PTK6 (human) = PTK6 (human) (UniProt Q13882)
MAPK13 (human) = MAPK13 (human) (UniProt O15264)
ALK EML4 (human) = ALK EML4 (human) (UniProt Q9HC35+Q9UM73)
FYN (human) = FYN (human) (UniProt P06241)
WNK1 (human) = WNK1 (human) (UniProt Q9H4A3)
PRKACA (human) = PRKACA (human) (UniProt P17612)
EPHA1 (human) = EPHA1 (human) (UniProt P21709)
TNK1 (human) = TNK1 (human) (UniProt Q13470)
MST4 (human) = MST4 (human) (UniProt Q9P289)
SRPK3 (human) = SRPK3 (human) (UniProt Q9UPE1)
BRSK1 (human) = BRSK1 (human) (UniProt Q8TDC3)
PAK7 (human) = PAK7 (human) (UniProt Q9P286)
TEK (human) = TEK (human) (UniProt Q02763)
HIPK3 (human) = HIPK3 (human) (UniProt Q9H422)
CAMK1D (human) = CAMK1D (human) (UniProt Q8IU85)
MARK2 (human) = MARK2 (human) (UniProt Q7KZI7)
PTK2 (human) = PTK2 (human) (UniProt Q05397)
PAK3 (human) = PAK3 (human) (UniProt O75914)

ERBB2 (human), sequence (P04626 whole entry, looked up): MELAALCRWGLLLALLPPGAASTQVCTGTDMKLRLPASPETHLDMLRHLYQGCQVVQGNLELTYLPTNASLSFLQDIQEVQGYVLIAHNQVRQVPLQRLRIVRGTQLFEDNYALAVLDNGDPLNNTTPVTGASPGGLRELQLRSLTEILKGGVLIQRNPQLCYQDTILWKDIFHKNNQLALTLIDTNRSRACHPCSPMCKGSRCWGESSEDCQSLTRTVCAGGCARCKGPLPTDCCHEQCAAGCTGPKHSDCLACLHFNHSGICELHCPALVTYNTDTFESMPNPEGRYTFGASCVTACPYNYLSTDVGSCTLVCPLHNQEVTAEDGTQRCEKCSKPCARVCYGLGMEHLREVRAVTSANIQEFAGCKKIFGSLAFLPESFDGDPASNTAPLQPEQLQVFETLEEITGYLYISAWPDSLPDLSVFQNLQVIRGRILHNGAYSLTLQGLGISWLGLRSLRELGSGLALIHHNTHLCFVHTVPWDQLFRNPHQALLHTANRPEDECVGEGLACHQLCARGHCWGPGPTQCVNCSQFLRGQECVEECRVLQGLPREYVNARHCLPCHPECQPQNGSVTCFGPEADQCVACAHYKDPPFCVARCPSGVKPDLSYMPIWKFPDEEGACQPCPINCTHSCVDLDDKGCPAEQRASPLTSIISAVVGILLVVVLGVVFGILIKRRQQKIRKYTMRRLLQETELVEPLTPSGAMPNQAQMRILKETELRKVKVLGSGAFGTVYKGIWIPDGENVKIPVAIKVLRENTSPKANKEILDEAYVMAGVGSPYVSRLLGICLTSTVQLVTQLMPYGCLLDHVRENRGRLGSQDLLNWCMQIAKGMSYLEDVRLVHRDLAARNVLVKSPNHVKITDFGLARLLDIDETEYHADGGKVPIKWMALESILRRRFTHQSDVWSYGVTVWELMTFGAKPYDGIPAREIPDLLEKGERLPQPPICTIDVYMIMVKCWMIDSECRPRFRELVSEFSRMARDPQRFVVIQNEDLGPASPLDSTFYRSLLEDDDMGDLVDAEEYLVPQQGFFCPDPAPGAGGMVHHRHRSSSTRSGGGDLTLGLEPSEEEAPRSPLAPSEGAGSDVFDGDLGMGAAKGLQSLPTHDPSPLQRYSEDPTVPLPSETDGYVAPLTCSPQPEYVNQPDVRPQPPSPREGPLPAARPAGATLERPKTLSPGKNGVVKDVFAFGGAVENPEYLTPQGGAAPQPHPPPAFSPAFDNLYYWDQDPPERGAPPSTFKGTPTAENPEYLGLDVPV
PRKX (human), sequence (P51817 whole entry, looked up): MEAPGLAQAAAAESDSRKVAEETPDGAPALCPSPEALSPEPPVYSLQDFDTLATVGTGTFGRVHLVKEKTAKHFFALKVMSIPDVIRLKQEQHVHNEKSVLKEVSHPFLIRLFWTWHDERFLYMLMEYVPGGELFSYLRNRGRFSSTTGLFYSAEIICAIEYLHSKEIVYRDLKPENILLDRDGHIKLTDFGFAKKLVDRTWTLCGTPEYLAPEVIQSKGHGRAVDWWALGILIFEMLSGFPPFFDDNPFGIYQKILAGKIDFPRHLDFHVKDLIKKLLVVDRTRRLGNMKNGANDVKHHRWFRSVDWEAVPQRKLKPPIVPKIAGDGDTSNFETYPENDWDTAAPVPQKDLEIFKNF
SRPK3 (human), sequence (Q9UPE1 whole entry, looked up): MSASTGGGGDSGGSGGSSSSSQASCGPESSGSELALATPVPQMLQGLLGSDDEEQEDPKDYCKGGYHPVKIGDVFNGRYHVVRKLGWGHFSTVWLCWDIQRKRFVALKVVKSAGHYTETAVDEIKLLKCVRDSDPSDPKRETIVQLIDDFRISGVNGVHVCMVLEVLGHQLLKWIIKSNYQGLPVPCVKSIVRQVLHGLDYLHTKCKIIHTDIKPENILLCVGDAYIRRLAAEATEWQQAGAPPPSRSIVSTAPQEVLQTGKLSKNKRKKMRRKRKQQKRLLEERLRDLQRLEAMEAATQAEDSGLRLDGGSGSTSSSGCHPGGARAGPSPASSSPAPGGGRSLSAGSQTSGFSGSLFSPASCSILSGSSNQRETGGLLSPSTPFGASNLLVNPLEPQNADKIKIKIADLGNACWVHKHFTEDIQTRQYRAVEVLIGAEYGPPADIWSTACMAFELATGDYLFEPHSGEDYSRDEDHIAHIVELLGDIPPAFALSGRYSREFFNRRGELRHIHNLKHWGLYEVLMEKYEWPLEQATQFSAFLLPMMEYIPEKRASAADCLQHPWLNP
NTRK1 (human), sequence (P04629 whole entry, looked up): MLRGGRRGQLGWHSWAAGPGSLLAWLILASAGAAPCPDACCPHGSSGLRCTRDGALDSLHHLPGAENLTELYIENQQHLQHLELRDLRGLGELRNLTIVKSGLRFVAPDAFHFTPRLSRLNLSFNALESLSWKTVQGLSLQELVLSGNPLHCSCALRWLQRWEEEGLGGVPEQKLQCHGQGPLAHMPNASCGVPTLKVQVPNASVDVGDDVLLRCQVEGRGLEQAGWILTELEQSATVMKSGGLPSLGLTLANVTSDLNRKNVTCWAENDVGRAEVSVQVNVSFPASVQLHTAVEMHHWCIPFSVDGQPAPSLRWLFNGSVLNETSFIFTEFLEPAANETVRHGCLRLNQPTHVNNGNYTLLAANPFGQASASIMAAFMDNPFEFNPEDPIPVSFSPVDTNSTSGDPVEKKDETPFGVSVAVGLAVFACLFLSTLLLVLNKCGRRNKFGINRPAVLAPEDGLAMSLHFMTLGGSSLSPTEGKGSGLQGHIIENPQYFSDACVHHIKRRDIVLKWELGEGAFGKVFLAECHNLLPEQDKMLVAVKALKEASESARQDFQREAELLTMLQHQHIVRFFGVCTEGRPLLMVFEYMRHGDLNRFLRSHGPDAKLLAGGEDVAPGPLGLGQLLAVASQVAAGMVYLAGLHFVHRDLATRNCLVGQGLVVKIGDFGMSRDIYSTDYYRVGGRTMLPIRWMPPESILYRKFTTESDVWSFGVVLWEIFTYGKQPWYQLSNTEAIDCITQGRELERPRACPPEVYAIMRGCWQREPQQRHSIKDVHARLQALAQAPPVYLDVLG
YES1 (human), sequence (P07947 whole entry, looked up): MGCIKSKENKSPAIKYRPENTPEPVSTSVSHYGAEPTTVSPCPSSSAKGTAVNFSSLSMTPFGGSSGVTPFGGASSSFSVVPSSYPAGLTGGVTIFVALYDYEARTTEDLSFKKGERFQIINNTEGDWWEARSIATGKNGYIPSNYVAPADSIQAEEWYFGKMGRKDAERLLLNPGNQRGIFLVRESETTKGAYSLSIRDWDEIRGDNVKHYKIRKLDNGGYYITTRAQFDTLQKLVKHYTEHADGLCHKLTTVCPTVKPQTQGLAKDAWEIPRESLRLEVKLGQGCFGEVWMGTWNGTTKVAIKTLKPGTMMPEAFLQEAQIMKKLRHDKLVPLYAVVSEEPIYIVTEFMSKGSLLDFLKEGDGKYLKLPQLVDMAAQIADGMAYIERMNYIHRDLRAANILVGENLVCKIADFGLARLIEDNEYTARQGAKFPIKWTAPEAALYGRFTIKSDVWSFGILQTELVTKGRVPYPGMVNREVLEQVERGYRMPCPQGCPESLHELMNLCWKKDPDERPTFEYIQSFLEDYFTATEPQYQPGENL
TNK1 (human), sequence (Q13470 whole entry, looked up): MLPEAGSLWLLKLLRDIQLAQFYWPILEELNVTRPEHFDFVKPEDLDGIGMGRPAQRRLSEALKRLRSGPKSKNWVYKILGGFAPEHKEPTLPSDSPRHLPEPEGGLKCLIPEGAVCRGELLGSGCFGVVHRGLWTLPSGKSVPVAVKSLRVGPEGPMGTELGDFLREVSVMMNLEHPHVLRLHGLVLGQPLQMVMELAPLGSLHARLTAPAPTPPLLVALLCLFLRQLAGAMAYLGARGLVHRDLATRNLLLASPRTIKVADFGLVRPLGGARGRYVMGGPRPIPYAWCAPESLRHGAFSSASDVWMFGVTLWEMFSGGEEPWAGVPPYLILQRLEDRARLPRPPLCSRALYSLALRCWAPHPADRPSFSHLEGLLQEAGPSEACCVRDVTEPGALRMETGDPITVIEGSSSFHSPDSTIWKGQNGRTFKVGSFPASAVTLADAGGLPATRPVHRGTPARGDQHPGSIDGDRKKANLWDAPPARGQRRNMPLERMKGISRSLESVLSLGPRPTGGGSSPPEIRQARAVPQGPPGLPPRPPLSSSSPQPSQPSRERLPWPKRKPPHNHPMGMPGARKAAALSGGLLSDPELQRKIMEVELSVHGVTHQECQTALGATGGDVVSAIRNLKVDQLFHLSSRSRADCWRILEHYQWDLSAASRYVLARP
IKBKE (human), sequence (Q14164 whole entry, looked up): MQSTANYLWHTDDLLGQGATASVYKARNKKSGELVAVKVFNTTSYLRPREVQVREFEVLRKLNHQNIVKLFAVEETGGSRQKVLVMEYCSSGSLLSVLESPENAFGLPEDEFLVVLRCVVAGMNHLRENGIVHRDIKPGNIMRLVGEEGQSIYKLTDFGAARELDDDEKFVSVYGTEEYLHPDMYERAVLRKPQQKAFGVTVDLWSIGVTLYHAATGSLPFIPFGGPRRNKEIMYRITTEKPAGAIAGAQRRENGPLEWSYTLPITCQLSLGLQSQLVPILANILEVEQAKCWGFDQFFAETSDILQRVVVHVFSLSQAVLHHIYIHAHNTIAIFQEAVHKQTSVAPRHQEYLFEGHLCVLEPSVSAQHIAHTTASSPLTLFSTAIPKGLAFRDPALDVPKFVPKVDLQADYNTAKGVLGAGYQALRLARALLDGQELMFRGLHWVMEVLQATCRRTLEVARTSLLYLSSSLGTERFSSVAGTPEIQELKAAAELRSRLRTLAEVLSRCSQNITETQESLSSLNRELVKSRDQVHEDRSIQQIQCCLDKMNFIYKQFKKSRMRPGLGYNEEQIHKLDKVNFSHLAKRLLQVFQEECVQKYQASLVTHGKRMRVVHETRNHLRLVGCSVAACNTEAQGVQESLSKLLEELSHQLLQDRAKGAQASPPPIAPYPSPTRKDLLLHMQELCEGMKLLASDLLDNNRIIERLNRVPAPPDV

- inhibition (NTRK2 (human); compound 0.2 µM): 85.7%
- inhibition (NTRK2 (human); compound 4.0 µM): 101%
- inhibition (NTRK1 (human); compound 0.2 µM): 99.7%
- inhibition (NTRK1 (human); compound 4.0 µM): 101%
- inhibition (YES1 (human); compound 0.2 µM): 96.9%
- inhibition (YES1 (human); compound 4.0 µM): 101%
- inhibition (CAMK2A (human); compound 0.2 µM): 24.5%
- inhibition (CAMK2A (human); compound 4.0 µM): 89%
- inhibition (DAPK1 (human); compound 0.2 µM): 64.4%
- inhibition (DAPK1 (human); compound 4.0 µM): 98.7%
- inhibition (ROCK1 (human); compound 0.2 µM): 8.9%
- inhibition (ROCK1 (human); compound 4.0 µM): 55.4%
- inhibition (IKBKE (human); compound 0.2 µM): 11.9%
- inhibition (IKBKE (human); compound 4.0 µM): 71.8%
- inhibition (MKNK1 (human); compound 0.2 µM): 7.4%
- inhibition (MKNK1 (human); compound 4.0 µM): 30.3%
- inhibition (TEC (human); compound 0.2 µM): 7.6%
- inhibition (TEC (human); compound 4.0 µM): 31.6%
- inhibition (PRKX (human); compound 0.2 µM): 7.7%
- inhibition (PRKX (human); compound 4.0 µM): 66.3%
- inhibition (ERBB2 (human); compound 0.2 µM): -3.2%
- inhibition (ERBB2 (human); compound 4.0 µM): -2.9%
- inhibition (CSNK2A1 (human); compound 0.2 µM): -0.4%
- inhibition (CSNK2A1 (human); compound 4.0 µM): 19.9%
- inhibition (CLK2 (human); compound 0.2 µM): 78.3%
- inhibition (CLK2 (human); compound 4.0 µM): 97.2%
- inhibition (NEK1 (human); compound 0.2 µM): -2.4%
- inhibition (NEK1 (human); compound 4.0 µM): -8.5%
- inhibition (TYRO3 (human); compound 0.2 µM): 82.2%
- inhibition (TYRO3 (human); compound 4.0 µM): 100%
- inhibition (PTK6 (human); compound 0.2 µM): 17.6%
- inhibition (PTK6 (human); compound 4.0 µM): 82.3%
- inhibition (MAPK13 (human); compound 0.2 µM): -3.4%
- inhibition (MAPK13 (human); compound 4.0 µM): -4.3%
- inhibition (ALK EML4 (human); compound 0.2 µM): 70.5%
- inhibition (ALK EML4 (human); compound 4.0 µM): 100%
- inhibition (FYN (human); compound 0.2 µM): 45.3%
- inhibition (FYN (human); compound 4.0 µM): 93.3%
- inhibition (WNK1 (human); compound 0.2 µM): 3.2%
- inhibition (WNK1 (human); compound 4.0 µM): 4.9%
- inhibition (PRKACA (human); compound 0.2 µM): 0.6%
- inhibition (PRKACA (human); compound 4.0 µM): 49%
- inhibition (EPHA1 (human); compound 0.2 µM): 8.2%
- inhibition (EPHA1 (human); compound 4.0 µM): 66.9%
- inhibition (TNK1 (human); compound 0.2 µM): 32.1%
- inhibition (TNK1 (human); compound 4.0 µM): 88.4%
- inhibition (MST4 (human); compound 0.2 µM): 4%
- inhibition (MST4 (human); compound 4.0 µM): 63.2%
- inhibition (SRPK3 (human); compound 0.2 µM): 1.1%
- inhibition (SRPK3 (human); compound 4.0 µM): 5.1%
- inhibition (BRSK1 (human); compound 0.2 µM): 40%
- inhibition (BRSK1 (human); compound 4.0 µM): 86.6%
- inhibition (PAK7 (human); compound 0.2 µM): 20.1%
- inhibition (PAK7 (human); compound 4.0 µM): 77.7%
- inhibition (TEK (human); compound 0.2 µM): -3.6%
- inhibition (TEK (human); compound 4.0 µM): 15.3%
SMILES: CCN(CC)CCNC(=O)c1c(C)[nH]c(/C=C2\C(=O)Nc3ccc(F)cc32)c1C

- inhibition (NTRK2 (human); compound 0.02 µM): 3.2%
- inhibition (NTRK2 (human); compound 0.2 µM): 37.4%
- inhibition (NTRK1 (human); compound 0.02 µM): 7.9%
- inhibition (NTRK1 (human); compound 0.2 µM): 37.2%
- inhibition (YES1 (human); compound 0.02 µM): -1.9%
- inhibition (YES1 (human); compound 0.2 µM): 17.7%
- inhibition (CAMK2A (human); compound 0.02 µM): -2.1%
- inhibition (CAMK2A (human); compound 0.2 µM): 5.8%
- inhibition (DAPK1 (human); compound 0.02 µM): 0.7%
- inhibition (DAPK1 (human); compound 0.2 µM): 1.1%
- inhibition (ROCK1 (human); compound 0.02 µM): -1.1%
- inhibition (ROCK1 (human); compound 0.2 µM): 6.8%
- inhibition (IKBKE (human); compound 0.02 µM): -4.5%
- inhibition (IKBKE (human); compound 0.2 µM): -4.7%
- inhibition (MKNK1 (human); compound 0.02 µM): -1.3%
- inhibition (MKNK1 (human); compound 0.2 µM): 6.4%
- inhibition (HIPK3 (human); compound 0.02 µM): 3.2%
- inhibition (HIPK3 (human); compound 0.2 µM): 28%
- inhibition (TEC (human); compound 0.02 µM): -6.3%
- inhibition (TEC (human); compound 0.2 µM): 9.4%
- inhibition (PRKX (human); compound 0.02 µM): -7%
- inhibition (PRKX (human); compound 0.2 µM): 0.2%
- inhibition (CAMK1D (human); compound 0.02 µM): -6.7%
- inhibition (CAMK1D (human); compound 0.2 µM): 3.1%
- inhibition (MARK2 (human); compound 0.02 µM): -10.6%
- inhibition (MARK2 (human); compound 0.2 µM): -9.7%
- inhibition (ERBB2 (human); compound 0.02 µM): 0.5%
- inhibition (ERBB2 (human); compound 0.2 µM): -1.7%
- inhibition (CSNK2A1 (human); compound 0.02 µM): -2%
- inhibition (CSNK2A1 (human); compound 0.2 µM): 0.3%
- inhibition (CLK2 (human); compound 0.02 µM): -0.7%
- inhibition (CLK2 (human); compound 0.2 µM): -2.1%
- inhibition (NEK1 (human); compound 0.02 µM): -5.2%
- inhibition (NEK1 (human); compound 0.2 µM): -6.3%
- inhibition (TYRO3 (human); compound 0.02 µM): -9.4%
- inhibition (TYRO3 (human); compound 0.2 µM): 3.7%
- inhibition (PTK6 (human); compound 0.02 µM): -0.9%
- inhibition (PTK6 (human); compound 0.2 µM): -0.8%
- inhibition (MAPK13 (human); compound 0.02 µM): -3.5%
- inhibition (MAPK13 (human); compound 0.2 µM): -0.7%
- inhibition (PTK2 (human); compound 0.02 µM): -4.6%
- inhibition (PTK2 (human); compound 0.2 µM): -3.4%
- inhibition (PAK3 (human); compound 0.02 µM): -1.4%
- inhibition (PAK3 (human); compound 0.2 µM): 2.1%
- inhibition (ALK EML4 (human); compound 0.02 µM): -6.5%
- inhibition (ALK EML4 (human); compound 0.2 µM): 2.8%
- inhibition (FYN (human); compound 0.02 µM): -2.5%
- inhibition (FYN (human); compound 0.2 µM): 14.5%
- inhibition (WNK1 (human); compound 0.02 µM): -4.5%
- inhibition (WNK1 (human); compound 0.2 µM): 6.3%
- inhibition (PRKACA (human); compound 0.02 µM): -4.7%
- inhibition (PRKACA (human); compound 0.2 µM): 0.7%
- inhibition (EPHA1 (human); compound 0.02 µM): -1.2%
- inhibition (EPHA1 (human); compound 0.2 µM): 8%
- inhibition (TNK1 (human); compound 0.02 µM): -0.4%
- inhibition (TNK1 (human); compound 0.2 µM): 19%
- inhibition (MST4 (human); compound 0.02 µM): -5.7%
- inhibition (MST4 (human); compound 0.2 µM): 0.1%
- inhibition (SRPK3 (human); compound 0.02 µM): -0.5%
- inhibition (SRPK3 (human); compound 0.2 µM): 7.9%
- inhibition (BRSK1 (human); compound 0.02 µM): -2.6%
- inhibition (BRSK1 (human); compound 0.2 µM): -6%
- inhibition (PAK7 (human); compound 0.02 µM): -2.5%
- inhibition (PAK7 (human); compound 0.2 µM): -1.8%
- inhibition (TEK (human); compound 0.02 µM): -2.6%
- inhibition (TEK (human); compound 0.2 µM): 9.5%
SMILES: CNC(=O)c1cc(Oc2ccc(NC(=O)Nc3ccc(Cl)c(C(F)(F)F)c3)cc2)ccn1

From the kinase profiling compilation of Christmann-Franck et al. (2016)
